From patent US20240199881A1, “METAL COMPLEX DYES FOR INKJET PRINTING” (Videojet Technologies Inc., priority 2021, published 2024)

Experiment: Saturated solubility testing in butanone and ethanol
Assay type: physicochemical
Conditions: for Solubility (w/w) in butanone: solvent butanone; for Solubility (w/w) in ethanol: solvent ethanol

| SMILES | Solubility (w/w) in butanone | Solubility (w/w) in ethanol |
| --- | --- | --- |
| O=[N+]([O-])c1ccc2c(c1)[O][Fe]1([O]c3cc([N+](=O)[O-])ccc3/N=N/c3c(ccc4ccccc34)[O]1)[O]c1ccc3ccccc3c1/N=N/2 [Example 29] | 50% (w/w) | <1% (w/w) |
| O=[N+]([O-])c1ccc2c(c1)/N=N/c1c(ccc3ccccc13)[O][Fe]1([O]2)[O]c2ccc([N+](=O)[O-])cc2/N=N/c2c(ccc3ccccc23)[O]1 [Example 59] | 6% (w/w) | <1% (w/w) |
| CCC(C)(C)c1cc2c(c([N+](=O)[O-])c1)[O][Fe]1([O]c3ccc4ccccc4c3/N=N/2)[O]c2ccc3ccccc3c2/N=N/c2cc(C(C)(C)CC)cc([N+](=O)[O-])c2[O]1 [Example 60] | ≥20% (w/w) | <2% (w/w) |
